Test results taken from paper PMC6792352, “Limited Chemical Structural Diversity Found to Modulate Thyroid Hormone Receptor in the Tox21 Chemical Library” (Environmental Health Perspectives, 2019).
Counter-ions that a name gives are not always drawn.

Assay: in vitro
Settings: rat, gh3-tre-luc cells, AC50 (uM) modified / 1000

Structure (SMILES)	CC50 at 24 h
COc1ccc(/C=N/NC(=O)c2ccncc2)c(C(=O)O)c1OC [Opiniazide]	> 50 µM
CO[C@H]1C[C@H](O[C@H]2[C@H](C)[C@@H](O[C@@H]3O[C@H](C)C[C@H](N(C)C)[C@H]3OC(C)=O)[C@@H](C)C[C@@]3(CO3)C(=O)[C@H](C)[C@@H](OC(C)=O)[C@@H](C)[C@@H](C)OC(=O)[C@@H]2C)O[C@@H](C)[C@@H]1OC(C)=O [Troleandomycin]	> 20 µM
CC1(C)CC(OC(=O)CCCCCCCCC(=O)OC2CC(C)(C)NC(C)(C)C2)CC(C)(C)N1 [Bis(2,2,6,6-tetramethyl-4-piperidyl) sebacate]	1.55 µM
O=C[C@H](O)[C@@H](O)[C@H](O[C@H]1O[C@H](CO)[C@@H](O[C@H]2O[C@H](CO)[C@@H](O)[C@H](O)[C@H]2O)[C@H](O)[C@H]1O)[C@H](O)CO [Maltotriose]	> 50 µM
Cc1[nH]nc2c1N=C(c1ccccc1Cl)c1cc([N+](=O)[O-])ccc1N2 [PharmaGSID_48505]	39.4 µM
COc1ccc(C(=O)CCC(=O)O)c2ccccc12 [Menbutone]	> 50 µM
O=c1[nH]c(=O)n([C@H]2CCCO2)cc1F [Tegafur]	> 90 µM
C[C@@H]1C(=O)NC2=Nc3cccc(Cl)c3CN21 [Quazinone]	> 50 µM
O=C(O)/C=C/c1c[nH]cn1 [Urocanic acid]	> 90 µM
C=C(C)C(=O)OCCOCCOC(=O)C(=C)C [Di(ethylene glycol) dimethacrylate]	> 90 µM
CC1(C)CCC(C)(C)c2cc(C(=O)Nc3ccc(C(=O)O)cc3)ccc21 [AM580]	66.2 µM
CC(C)N(C)C [Dimethylisopropylamine]	> 90 µM
CCC(CC)CO [2-Ethyl-1-butanol]	> 90 µM
CCC(C)(O)CCCC(C)C (stereo not shown) [3,7-Dimethyl-3-octanol]	> 90 µM
OCC1CCC(CO)CC1 (stereo not shown) [1,4-Cyclohexanedimethanol]	> 90 µM
CC1(C)CC(N)CC(C)(C)N1 [2,2,6,6-Tetramethylpiperidin-4-amine]	> 90 µM
C=CC(C)(O)CC/C=C(/C)CCC=C(C)C (stereo not drawn) [cis-Nerolidol]	> 90 µM
CCCNC(C)C(=O)Nc1c(C)csc1C(=O)OC (stereo not shown) [Articaine hydrochloride]	> 20 µM
OCCCCCCO [1,6-Hexanediol]	> 90 µM
CCNC(=O)NCc1cccc(Cl)c1 [Lozilurea]	> 50 µM
CCCC(C)C1(CC)C(=O)NC(=S)NC1=O (stereo not shown) [Thiopental sodium]	> 50 µM
O=S(=O)(O)OC[C@H]1O[C@@](COS(=O)(=O)O)(O[C@H]2O[C@H](COS(=O)(=O)O)[C@@H](OS(=O)(=O)O)[C@H](OS(=O)(=O)O)[C@H]2OS(=O)(=O)O)[C@@H](OS(=O)(=O)O)[C@@H]1OS(=O)(=O)O [Sucrose octasulfate, sodium salt]	> 50 µM

Structure (SMILES)	CC50 at 24 h
COc1cc(CC(C)N)cc(OC)c1OC (stereo not shown) [3,4,5-Trimethoxyamphetamine hydrochloride]	> 100 µM
NC(=O)NC(N)=O [Imidodicarbonic diamide]	> 90 µM
O=C(NCC1CCCCN1)c1cc(OCC(F)(F)F)ccc1OCC(F)(F)F (stereo not shown) [Flecainide acetate]	42.2 µM
CN1CCCC(CC2c3ccccc3Sc3ccccc32)C1 (stereo not shown) [Metixene hydrochloride]	8.17 µM
CCOC(=O)CC(=O)OCC [Diethyl propanedioate]	> 90 µM
C1CCCCC1 [Cyclohexane]	> 90 µM
CCCCOC(=O)CCC(C)=O [Butyl 4-oxopentanoate]	> 90 µM
O=S(=O)(O)c1cccc2ccccc12 [Sodium 1-naphthalenesulfonate]	> 90 µM
CN1CCCN(C(c2ccccc2)c2ccc(Cl)cc2)CC1 (stereo not shown) [Homochlorcyclizine]	7.44 µM
Nc1cc(S(=O)(=O)O)ccc1O [2-Amino-1-phenol-4-sulfonic acid]	> 90 µM
CCCCCCCCCCCCCC[N+](C)(C)Cc1ccccc1 [Benzyldimethyltetradecylammonium chloride dihydrate]	10.5 µM
CCCCOCCOC(=O)COc1cc(Cl)c(Cl)cc1Cl [2,4,5-T-butotyl]	> 90 µM
CCCCOC(=O)COc1ccc(Cl)cc1Cl [2,4-D 1-butyl ester]	> 90 µM
C=CC(C)(C)CC(=O)OC [Methyl 3,3-dimethylpent-4-enoate]	> 90 µM
On1nnc2ccccc21 [1-Hydroxybenzotriazole]	> 90 µM
O=S(=O)(O)c1cccc(S(=O)(=O)O)c1 [Disodium benzene-1,3-disulfonate]	> 90 µM
Cn1c(NCCN(CCO)CCCc2ccc([N+](=O)[O-])cc2)cc(=O)n(C)c1=O [Nifekalant hydrochloride]	> 50 µM
CC[N+](CC)(CC)CC [Tetraethylammonium chloride]	> 100 µM
Nc1ccc(O)c(C(=O)O)c1 [5-Aminosalicylic acid]	> 50 µM
C=C[C@@]1(C)CC(=O)[C@]2(O)[C@@]3(C)[C@@H](O)CCC(C)(C)[C@@H]3[C@H](O)[C@H](OC(C)=O)[C@@]2(C)O1 [Forskolin]	> 90 µM
Nc1ncnc2c1ncn2[C@@H]1O[C@H](COP(=O)(O)O)[C@@H](O)[C@H]1O [Adenosine 5'-phosphate]	> 50 µM
OCC(O)CO [Glycerol]	> 90 µM

Structure (SMILES)	CC50 at 24 h
O=C(C(=O)c1ccccc1)c1ccccc1 [1,2-Diphenylethanedione]	> 90 µM
Nc1ccccc1Nc1ccccc1 [2-Aminodiphenylamine]	14.7 µM
CCOc1ccccc1OCC [1,2-Diethoxybenzene]	> 90 µM
OP(O)c1ccccc1 [Phenylphosphinic acid]	> 90 µM
Cc1c(Cl)cccc1Cl [2,6-Dichlorotoluene]	> 90 µM
c1c[nH]cn1 [Imidazole]	> 100 µM
O[C@@H](CNC[C@H](O)[C@H]1CCc2cc(F)ccc2O1)[C@@H]1CCc2cc(F)ccc2O1 (racemic) [rac Nebivolol hydrochloride]	7.99 µM
Cc1cccc(C(=O)O)c1O [2-Hydroxy-3-methylbenzoic acid]	> 50 µM
CC(=O)CC/C=C(\C)CC/C=C(\C)CC/C=C(\C)CCC=C(C)C [Teprenone]	> 50 µM
COC(=O)c1ccccc1CS(=O)(=O)NC(=O)Nc1nc(OC)cc(OC)n1 [Bensulfuron-methyl]	> 90 µM
COc1ccc(CN2CCNCC2)c(OC)c1OC [Trimetazidine dihydrochloride]	> 20 µM
Cc1ccc(OC(=O)CC(C)C)cc1 [4-Methylphenyl 3-methylbutanoate]	> 90 µM
C[C@@H]1O[C@@H](OC[C@H]2O[C@@H](Oc3c(-c4ccc(OCCO)c(OCCO)c4)oc4cc(OCCO)cc(O)c4c3=O)[C@H](O)[C@@H](O)[C@@H]2O)[C@H](O)[C@H](O)[C@H]1O [Troxerutin]	> 50 µM
COc1ccc(C(=O)c2ccc(O)cc2)c(OC)c1 [(2,4-dimethoxyphenyl)(4-hydroxyphenyl)methanone]	> 90 µM
N=C(N)N [Guanidine carbonate]	> 50 µM
NC(=O)CC[C@H](Nc1ccc([N+](=O)[O-])cc1)C(=O)O [N2-(4-Nitrophenyl)-L-glutamine hydrochloride]	> 90 µM
Cc1ncc([N+](=O)[O-])n1CC(O)CCl (stereo not shown) [Ornidazole]	> 20 µM
O=C1OCCO1 [1,3-Dioxolan-2-one]	> 100 µM
CC[N+](C)(CC)CCOC(=O)C(O)(c1ccccc1)C1CCCCC1 (stereo not shown) [Oxyphenonium bromide]	> 50 µM
Cc1cc(C)c(N)c(Cl)c1 [2-Chloro-4,6-dimethylaniline]	> 90 µM
CCOC(=O)C1=NOC(c2ccccc2)(c2ccccc2)C1 [Isoxadifen-ethyl]	> 90 µM

Same assay, conditions: rat, gh3-tre-luc cells, AC50 (uM) modified / 1000, Tox21_110001=Tox21_110520; viability, 1 nM T3 present, 24 h

Structure (SMILES)	CC50 at 24 h
C[C@]12C[C@H]3S[C@H]3C[C@@H]1CC[C@@H]1[C@@H]2CC[C@]2(C)[C@@H](O)CC[C@@H]12 [Epitiostanol]	> 20 µM

Same assay, conditions: rat, gh3-tre-luc cells, AC50 (uM) modified / 1000, Tox21_110001=Tox21_110665; viability, 1 nM T3 present, 24 h

Structure (SMILES)	CC50 at 24 h
CCC1(c2cccc(O)c2)CCCCN(C)C1 (stereo not shown) [Meptazinol hydrochloride]	> 20 µM

Same assay, conditions: rat, gh3-tre-luc cells, AC50 (uM) modified / 1000, Tox21_110001=Tox21_111928; viability, 1 nM T3 present, 24 h

Structure (SMILES)	CC50 at 24 h
CNC(=O)Oc1ccccc1C(=O)Nc1ccccc1 [Anilamate]	> 50 µM

Same assay, conditions: rat, gh3-tre-luc cells, AC50 (uM) modified / 1000, Tox21_110001=Tox21_112659; viability, 1 nM T3 present, 24 h

Structure (SMILES)	CC50 at 24 h
COC1CC(=C(c2cccs2)c2cccs2)C[N+](C)(C)C1 (stereo not shown) [Timepidium bromide]	> 50 µM

Same assay, conditions: rat, gh3-tre-luc cells, AC50 (uM) modified / 1000, Tox21_110001=Tox21_112669; viability, 1 nM T3 present, 24 h

Structure (SMILES)	CC50 at 24 h
CC(C)CCC(=O)O[C@H]1CC[C@H]2[C@@H]3CCC4=CC(=O)CC[C@]4(C)[C@H]3CC[C@]12C [Testosterone isocaproate]	35.3 µM

Same assay, conditions: rat, gh3-tre-luc cells, AC50 (uM) modified / 1000, Tox21_110001=Tox21_202356; viability, 1 nM T3 present, 24 h

Structure (SMILES)	CC50 at 24 h
O=NN1CCCC1 [N-Nitrosopyrrolidine]	> 100 µM

Same assay, conditions: rat, gh3-tre-luc cells, AC50 (uM) modified / 1000, Tox21_110001=Tox21_203002; viability, 1 nM T3 present, 24 h

Structure (SMILES)	CC50 at 24 h
NC(=S)Nc1cccc2ccccc12 [1-(1-Naphthyl)-2-thiourea]	> 5 µM

Same assay, conditions: rat, gh3-tre-luc cells, AC50 (uM) modified / 1000, Tox21_110001=Tox21_300863; viability, 1 nM T3 present, 24 h

Structure (SMILES)	CC50 at 24 h
CCNP(=S)(OC)O/C(C)=C/C(=O)OC(C)C (stereo not shown) [Propetamphos]	> 90 µM

Same assay, conditions: rat, gh3-tre-luc cells, AC50 (uM) modified / 1000, Tox21_110001=Tox21_301075; viability, 1 nM T3 present, 24 h

Structure (SMILES)	CC50 at 24 h
N#CCNCC#N [Iminodiacetonitrile]	> 90 µM

Same assay, conditions: rat, gh3-tre-luc cells, AC50 (uM) modified / 1000, Tox21_110001=Tox21_301566; viability, 1 nM T3 present, 24 h

Structure (SMILES)	CC50 at 24 h
CCCN(CC1CC1)c1c([N+](=O)[O-])cc(C(F)(F)F)cc1[N+](=O)[O-] [Profluralin]	76.2 µM

Same assay, conditions: rat, gh3-tre-luc cells, AC50 (uM) modified / 1000, Tox21_110001=Tox21_302913; viability, 1 nM T3 present, 24 h

Structure (SMILES)	CC50 at 24 h
O=NN1CCCC1 [N-Nitrosopyrrolidine]	> 90 µM
